Results published in patent US8846947B2, “Benzimidazoles and related analogs as sirtuin modulators” (GlaxoSmithKline LLC, priority 2008, dated 2014).
Read-outs that look alike come from different tables or passages of the source.

Target: T1, SIRT1 (Homo sapiens, UniProt Q96EB6)
T1 sequence (Q96EB6 1-747): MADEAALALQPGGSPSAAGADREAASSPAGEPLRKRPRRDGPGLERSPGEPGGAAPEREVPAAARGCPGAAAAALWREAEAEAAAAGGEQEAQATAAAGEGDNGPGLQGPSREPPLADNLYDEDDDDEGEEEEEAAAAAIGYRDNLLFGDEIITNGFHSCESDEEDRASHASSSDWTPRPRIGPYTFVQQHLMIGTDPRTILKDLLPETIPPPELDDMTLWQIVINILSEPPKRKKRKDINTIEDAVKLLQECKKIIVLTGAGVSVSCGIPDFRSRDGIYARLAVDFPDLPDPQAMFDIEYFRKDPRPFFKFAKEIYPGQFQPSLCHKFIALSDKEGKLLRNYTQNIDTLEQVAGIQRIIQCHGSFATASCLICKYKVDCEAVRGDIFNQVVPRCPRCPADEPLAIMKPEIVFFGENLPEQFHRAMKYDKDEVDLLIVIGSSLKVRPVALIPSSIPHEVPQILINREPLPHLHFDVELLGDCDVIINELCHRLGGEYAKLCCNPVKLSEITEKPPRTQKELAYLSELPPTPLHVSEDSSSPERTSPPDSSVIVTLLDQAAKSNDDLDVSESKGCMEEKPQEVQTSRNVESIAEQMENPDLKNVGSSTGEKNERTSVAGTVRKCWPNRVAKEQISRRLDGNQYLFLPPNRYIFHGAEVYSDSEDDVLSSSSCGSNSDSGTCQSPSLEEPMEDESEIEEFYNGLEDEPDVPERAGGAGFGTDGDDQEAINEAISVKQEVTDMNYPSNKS
Test: Mass spectrometry based SIRT1 deacetylase activation assay (acetylated p53-derived peptide substrate)
Format: biochemical
Source text: A mass spectrometry based assay was used to identify modulators of SIRT1 activity. The mass spectrometry based assay utilizes a peptide having 20 amino acid residues as follows: Ac-EE-K(biotin)-GQSTSSHSK(Ac)NleSTEG-K(5TMR)-EE-NH2 (SEQ ID NO: 1) wherein K(Ac) is an acetylated lysine residue and Nle is a norleucine. The peptide is labeled with the fluorophore 5TMR (excitation 540 nm/emission 580 nm) at the C-terminus. The sequence of the peptide substrate is based on p53 with several modifications. In addition, the methionine residue naturally present in the sequence was replaced with the norleucine because the methionine may be susceptible to oxidation during synthesis and purification.
The mass spectrometry assay is conducted as follows: 0.5 μM peptide substrate and 120 μM βNAD^+ is incubated with 10 nM SIRT1 for 25 minutes at 25° C. in a reaction buffer (50 mM Tris-acetate pH 8, 137 mM NaCl, 2.7 mM KCl, 1 mM MgCl2, 5 mM DTT, 0.05% BSA). Test compounds may be added to the reaction as described above. […] After the 25 minute incubation with SIRT1, 10 μL of 10% formic acid is added to stop the reaction. Reactions are sealed and frozen for later mass spec analysis. Determination of the mass of the substrate peptide allows for precise determination of the degree of acetylation (i.e. starting material) as compared to deacetylated peptide (product).
A control for inhibition of sirtuin activity is conducted by adding 1 μL of 500 mM nicotinamide as a negative control at the start of the reaction (e.g., permits determination of maximum sirtuin inhibition). A control for activation of sirtuin activity is conducted using 10 nM of sirtuin protein, with 1 μL of DMSO in place of compound, to determine the amount of deacetylation of the substrate at a given timepoint within the linear range of the assay. This timepoint is the same as that used for test compounds and, within the linear range, the endpoint represents a change in velocity.
For the above assay, SIRT1 protein was expressed and purified as follows. […] The protein was expressed by induction with 1 mM IPTG as an N-terminal His-tag fusion protein at 18° C. overnight and harvested at 30,000×g. Cells were lysed with lysozyme in lysis buffer (50 mM Tris-HCl, 2 mM Tris[2-carboxyethyl]phosphine (TCEP), 10 μM ZnCl2, 200 mM NaCl) and further treated with sonication for 10 min for complete lysis. The protein was purified over a Ni-NTA column (Amersham) and fractions containing pure protein were pooled, concentrated and run over a sizing column (Sephadex S200 26/60 global). The peak containing soluble protein was collected and run on an Ion-exchange column (MonoQ). Gradient elution (200 mM-500 mM NaCl) yielded pure protein. This protein was concentrated and dialyzed against dialysis buffer (20 mM Tris-HCl, 2 mM TCEP) overnight. The protein was aliquoted and frozen at −80° C. until further use.
Sirtuin modulating compounds that activated SIRT1 were identified using the assay described above and are shown below in Table 1. The EC1.5 values for the activating compounds are represented by A (EC1.5<1.0 uM), B (EC1.5 1-25 uM), C (EC1.5 >25 uM). The percent maximum fold activation is represented by A (Fold activation >200%) or B (Fold Activation <200%).

[1] = 0.5 μM peptide substrate, 120 μM βNAD+, 10 nM SIRT1, 25 min at 25° C.
[2] = 0.5 μM peptide substrate, 120 μM βNAD+, 10 nM SIRT1, 25 min at 25° C., read-out: EC1.5
[3] = 0.5 μM peptide substrate, 120 μM βNAD+, 10 nM SIRT1, 25 minutes at 25° C.

Row | Compound | EC1.5 [3] | Fold Act. (percent maximum fold activation) [3] | EC1.5 | Fold Act. (percent maximum fold activation) | other results
1 | O=C(Nc1nccs1)c1cccc2[nH]c(-c3ccccc3OC3CCNC3)nc12 (stereo not drawn) [Compound 459, 2-(2-(pyrrolidin-3-yloxy)phenyl)-N-(thiazol-2-yl)-1H-benzo[d]imidazole-4-carboxamide] | – | – | – | – | Fold Act. (percent maximum fold activation) [1]: A (Fold activation >200%); EC1.5 [2]: 1000 to 25000 nM
2 | O=C(Nc1nccs1)c1cccc2[nH]c(-c3ccoc3)nc12 [Compound 229] | – | – | B (EC1.5 1-25 uM) | A (Fold activation >200%) | –
3 | O=C(Nc1ccc(OCC(O)CO)cc1)c1cccc2[nH]c(-c3ccccc3C(F)(F)F)nc12 (stereo not drawn) [Compound 492] | – | – | – | – | Fold Act. (percent maximum fold activation) [1]: A (Fold activation >200%); EC1.5 [2]: < 1000 nM
4 | O=C(Nc1cccnn1)c1cccc2[nH]c(-c3ccccc3C(F)(F)F)nc12 [Compound 451] | – | – | – | – | Fold Act. (percent maximum fold activation) [1]: A (Fold activation >200%); EC1.5 [2]: < 1000 nM
5 | Cc1cccc(-c2nc3c(C(=O)Nc4nccs4)cccc3[nH]2)c1OCCN1CCOCC1 [Compound 626] | B (EC1.5 1-25 uM) | A (Fold activation >200%) | – | – | –
6 | O=C(Nc1cccc(CN2CCOCC2)n1)c1cccc2[nH]c(-c3cc(F)cc(F)c3)nc12 [Compound 852] | A (EC1.5<1.0 uM) | A (Fold activation >200%) | – | – | –
7 | Cc1cc(-c2nc3c(C(=O)Nc4cccc(CN5CCOCC5)n4)cccc3[nH]2)ccn1 [Compound 816, 2-(2-methylpyridin-4-yl)-N-(6-(morpholinomethyl)pyridin-2-yl)-1H-benzo[d]imidazole-4-carboxamide] | A (EC1.5<1.0 uM) | A (Fold activation >200%) | – | – | –
8 | O=C(Nc1cccc(OC[C@H](O)CO)c1)c1cccc2[nH]c(-c3ccncc3)nc12 [Compound 783] | A (EC1.5<1.0 uM) | A (Fold activation >200%) | – | – | –
9 | Cc1cnc(NC(=O)c2cccc3[nH]c(-c4cccc(C(F)(F)F)c4)nc23)s1 [Compound 260] | – | – | B (EC1.5 1-25 uM) | B (Fold Activation <200%) | –
10 | O=C(Nc1nccs1)c1cccc2[nH]c(-c3ccccc3OCCN3CCOCC3)nc12 [Compound 340] | – | – | A (EC1.5<1.0 uM) | A (Fold activation >200%) | –
11 | CS(=O)(=O)c1ccccc1-c1nc2c(C(=O)Nc3cccnc3)cccc2[nH]1 [Compound 518] | – | – | – | – | Fold Act. (percent maximum fold activation) [1]: A (Fold activation >200%); EC1.5 [2]: 1000 to 25000 nM

Further lines, with some results ahead:

Row | EC1.5 [3] | Fold Act. (percent maximum fold activation) [3] | EC1.5 | Fold Act. (percent maximum fold activation) | Compound | other results
12 | B (EC1.5 1-25 uM) | A (Fold activation >200%) | – | – | O=C(Nc1ccc(CN2CCOCC2)cn1)c1cccc2[nH]c(-c3cc(F)ccc3C(F)(F)F)nc12 [Compound 624, 2-(5-fluoro-2-(trifluoromethyl)phenyl)-N-(5-(morpholinomethyl)pyridin-2-yl)-1H-benzo[d]imidazole-4-carboxamide] | –
13 | A (EC1.5<1.0 uM) | A (Fold activation >200%) | – | – | O=C(Nc1cccc(OCC(O)CO)c1)c1cccc2[nH]c(-c3ccc(F)cc3C(F)(F)F)nc12 (stereo not drawn) [Compound 679] | –
14 | – | – | B (EC1.5 1-25 uM) | A (Fold activation >200%) | O=C(Nc1cccc2[nH]c(-c3ccccc3C(F)(F)F)nc12)c1cnccn1 [Compound 366] | –
15 | A (EC1.5<1.0 uM) | A (Fold activation >200%) | – | – | CC1(C)CN(c2ccc(-c3nc4c(C(=O)Nc5nccs5)cccc4[nH]3)c(C(F)(F)F)c2)CCO1 [Compound 706] | –
16 | A (EC1.5<1.0 uM) | A (Fold activation >200%) | – | – | O=C(Nc1cccc(OC[C@H](O)CO)c1)c1cccc2[nH]c(-c3cc(F)ccc3C(F)F)nc12 [Compound 719] | –
17 | – | – | A (EC1.5<1.0 uM) | A (Fold activation >200%) | O=C(Nc1cccnc1)c1cccc2[nH]c(-c3ccc(Cl)cc3C(F)(F)F)nc12 [Compound 312] | –
18 | – | – | A (EC1.5<1.0 uM) | A (Fold activation >200%) | O=C(Nc1cc[n+]([O-])cc1)c1cccc2[nH]c(-c3ccc(Cl)cc3C(F)(F)F)nc12 [Compound 338] | –
